According to patent publication US7626042B2, “O-substituted hydroxyaryl derivatives” (Institute of Medicinal Molecular Design, Inc., priority 2002, dated 2009):

Tested on: NF-κB activation
Test: Inhibitory activity against NF-κB activation, luciferase reporter assay under TNF-α stimulation
Type: cell-based, human
Details: HepG2 cells, TNF-α 40 ng/ml, 4 hours; for inhibition at 1 µg/mL / inhibition at 10 µg/mL: Homo sapiens, read-out: Inhibitory Ratio of NF-κ B Activation(%)
In short: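 HepG2 cells transfected with firefly luciferase reporter carrying five tandem NF-κB sites, incubated 6 to 24 hours, then cultured 4 hours with TNF-α (40 ng/ml) plus test compound. Luminescent luciferase read-out; inhibition expressed relative to activity without compound.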

Row | Compound | Inhibitory Ratio of NF-κ B Activation(%) (Drug Concentration 1 μg/mL) | Inhibitory Ratio of NF-κ B Activation(%) (Drug Concentration 10 μg/mL) | inhibition at 1 µg/mL (Drug Concentration 1 μg/mL) [%] | inhibition at 10 µg/mL (Drug Concentration 10 μg/mL) [%]
1 | O=C(O)COc1ccc(Cl)cc1C(=O)Nc1cc(C(F)(F)F)cc(C(F)(F)F)c1 [Compound 109] | 21.0 | 95.9 | – | –
2 | COCC(=O)Oc1ccc(Cl)cc1C(=O)Nc1cc(C(F)(F)F)cc(C(F)(F)F)c1 [Compound 10] | 95.3 | 97.4 | – | –
3 | O=C(CNC(=O)OCc1ccccc1)Oc1ccc(Cl)cc1C(=O)Nc1cc(C(F)(F)F)cc(C(F)(F)F)c1 [Compound 21] | 96.7 | 98.7 | – | –
4 | O=C(Oc1ccc(Cl)cc1C(=O)Nc1cc(C(F)(F)F)cc(C(F)(F)F)c1)c1cccnc1 [Compound 6] | 94.4 | 98.1 | – | –
5 | O=C(Nc1cc(C(F)(F)F)ccc1C(F)(F)F)c1cc(Cl)ccc1OP(=O)([O-])O.[Na+] [Compound 122] | >99.9 | >99.9 | – | –
6 | COc1ccc(Cl)cc1C(=O)Nc1cc(C(F)(F)F)cc(C(F)(F)F)c1 [Compound 93] | 44.3 | 24.0 | – | –
7 | CCOC(=O)CN(CC(=O)OCC)C(=O)OCOc1ccc(Cl)cc1C(=O)Nc1cc(C(F)(F)F)cc(C(F)(F)F)c1 [Compound 105, 2-({N,N-bis[(ethoxycarbonyl)methyl]carbamoyl}oxy)methoxy-5-chloro-N-[3,5-bis(trifluoromethyl)phenyl]benzamide] | – | – | 71.8 | 56
8 | O=C(O)CN(CC(=O)O)C(=O)OCOc1ccc(Cl)cc1C(=O)Nc1cc(C(F)(F)F)cc(C(F)(F)F)c1 [Compound 106] | 61.0 | 83.5 | – | –
9 | CC(C)(C)OC(=O)N[C@@H](Cc1ccccc1)C(=O)Oc1ccc(Cl)cc1C(=O)Nc1cc(C(F)(F)F)cc(C(F)(F)F)c1 [Compound 28, 2-[N-(tert-butoxycarbonyl)-L-phenylalanyl]oxy-5-chloro-N-[3,5-bis(trifluoromethyl)-phenyl]benzamide] | – | – | 96.4 | 98.4
10 | O=C(Cc1ccccc1)Oc1ccc(Cl)cc1C(=O)Nc1cc(C(F)(F)F)cc(C(F)(F)F)c1 [Compound 8] | 95.0 | 97.9 | – | –
11 | Cl.NCC(=O)Oc1ccc(Cl)cc1C(=O)Nc1cc(C(F)(F)F)cc(C(F)(F)F)c1 [Compound 23] | 19.8 | 97.3 | – | –
